The text below walks through data of article PMC10592247 (Molecular cancer therapeutics, 2023).

In assay [1] the test system is LNCaP-abl cells. The experiment in a line: Cell viability after pre-incubation with endocytosis pathway inhibitors. The assay is classed as cell-based. The following applies: EIPA 50µM 30min, then compound 10µM, PrestoBlue after 3 days, n=2.
For assay [2], the system named is 22Rv1 cells. Kind of assay: Dextran uptake assay. In kind it is cell-based. The following applies: 2µM for 30min before assay, TMR-dextran 1 mg/mL 30min.

As to `C#C[C@]1(O)CC[C@H]2[C@@H]3CCC4=CC(=O)CC[C@]4(C)[C@H]3CC[C@@]21C` [ethisterone, Ethisterone], in assay [1], the “antiproliferative activity after EIPA pre-incubation” value is given as “did not affect”.
On to `CC(C)(C)C(=O)Nc1ccc2c(c1)C(=O)C(=O)c1ccccc1-2` [SF16170, SF1670], for which the “macropinocytosis (TMR-dextran uptake)” value in assay [2] is listed as “enhanced macropinocytosis”.
For `CNC(=O)c1ccc(N2C(=S)N(c3ccc(C#N)c(C(F)(F)F)c3)C(=O)C2(C)C)cc1F` [enzalutamide, Enzalutamide], in assay [1], the “antiproliferative activity after EIPA pre-incubation” value is given as “did not affect”.
